Test results taken from patent US11352340B2, “Pyridine and pyridimine compounds as PI3K-gamma inhibitors” (Incyte Corporation, priority 2016, dated 2022).
pIC50: −log10 of the molar value. Where a name gives a salt, the structure may show the parent alone.

Legend:
[1] = test system: Phosphorylated Ribosomal Protein S6 (RPS6) in THP-1 cells; test: THP-1 RPS6 ELISA Assay; assay type: cell-based, Human; conditions: Homo sapiens, MCP-1 stimulated, phospho-RPS6 ELISA, read-out: THP p-RPS6 ELISA IC50
Method: Example A. THP-1 RPS6 ELISA Assay
To measure the Phosphorylated Ribosomal Protein S6 (RPS6) in cell lysates, THP-1 cells (Human Acute Monocytic Leukemia) are purchased from ATCC (Manassas, Va.) and maintained in RPMI with 10% FBS (Gibco/Life Technologies, Carlsbad, Calif.). For the assay, THP-1 cells are serum starved overnight in RPMI, then plated in RPMI (2×10^5 cells/well in 90 μL) into 96-well flat-bottom tissue culture treated plates (Corning, Corning, N.Y.), in the presence or absence of a concentration range of test compounds. Covered plates are incubated for 2 hours at 37° C., 5% CO2 then treated with or without 10 nM MCP-1 (MYBioSource, San Diego, Calif.) for 15 minutes at 37° C., 5% CO2. Plates are centrifuged at 1600 RPM and supernatants are removed. Cells are lysed in Lysis Buffer (Cell Signaling, Danvers, Mass.) with Protease Inhibitor (Calbiochem/EMD, Germany), PMSF (Sigma, St Louis Mo.), HALTS (Thermo Fisher, Rockford, Ill.) for 30 min on wet ice. Cell lysates are frozen at −80° C. before testing. The lysates are tested in the Human/Mouse/Rat Phospho-RPS6 ELISA (R&D Systems, Inc. Minn, Minn.). The plate is measured using a microplate reader (SpectraMax M5—Molecular Devices, LLC Sunnyvale, Calif.) set to 450 nm with a wavelength correction of 540. IC50 determination is performed by fitting the curve of inhibitor percent inhibition versus the log of the inhibitor concentration using the GraphPad Prism 5.0 software.

[2] = target: PI3Kγ (p110γ) Recombinant Human Protein (Homo sapiens (Human), UniProt P48736); test: PI3K-γ Scintillation Proximity Assay; assay type: biochemical; conditions: read-out: PI3K-gamma SPA IC50
Sequence of PI3Kγ (p110γ) Recombinant Human Protein (P48736 whole entry): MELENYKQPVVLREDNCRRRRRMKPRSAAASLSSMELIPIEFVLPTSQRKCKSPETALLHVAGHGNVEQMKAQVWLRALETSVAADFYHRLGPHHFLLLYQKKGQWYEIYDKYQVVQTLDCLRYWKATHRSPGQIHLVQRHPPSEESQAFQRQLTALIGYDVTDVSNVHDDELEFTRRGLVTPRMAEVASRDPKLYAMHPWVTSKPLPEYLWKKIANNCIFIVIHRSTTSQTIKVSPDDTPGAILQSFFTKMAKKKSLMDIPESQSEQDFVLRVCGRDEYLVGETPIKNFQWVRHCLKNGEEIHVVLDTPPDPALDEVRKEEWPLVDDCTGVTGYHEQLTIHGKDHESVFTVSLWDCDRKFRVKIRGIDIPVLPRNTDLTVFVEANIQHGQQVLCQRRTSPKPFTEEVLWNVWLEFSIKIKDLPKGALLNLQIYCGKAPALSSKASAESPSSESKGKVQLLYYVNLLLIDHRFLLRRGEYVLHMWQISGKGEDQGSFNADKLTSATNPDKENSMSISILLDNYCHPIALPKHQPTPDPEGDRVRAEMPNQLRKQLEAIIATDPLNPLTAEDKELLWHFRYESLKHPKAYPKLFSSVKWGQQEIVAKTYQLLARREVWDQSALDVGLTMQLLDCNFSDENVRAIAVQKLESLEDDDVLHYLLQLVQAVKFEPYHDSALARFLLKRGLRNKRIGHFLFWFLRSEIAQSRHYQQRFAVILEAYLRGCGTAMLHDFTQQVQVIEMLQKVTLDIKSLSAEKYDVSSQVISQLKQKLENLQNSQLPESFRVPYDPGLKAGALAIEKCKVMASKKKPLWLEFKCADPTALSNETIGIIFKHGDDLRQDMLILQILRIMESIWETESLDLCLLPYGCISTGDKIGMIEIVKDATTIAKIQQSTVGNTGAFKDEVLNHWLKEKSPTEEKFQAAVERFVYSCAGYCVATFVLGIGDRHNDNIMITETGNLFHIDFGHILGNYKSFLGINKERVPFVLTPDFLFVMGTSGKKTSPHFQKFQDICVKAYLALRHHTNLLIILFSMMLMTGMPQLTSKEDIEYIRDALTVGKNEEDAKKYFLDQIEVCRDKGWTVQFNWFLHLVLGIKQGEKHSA
Outline: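 Radiometric SPA: reaction at room temperature for 120 min using 2 μM ATP with [γ-33P]ATP tracer, 20 μM PIP2 substrate and 13 nM human PI3Kγ (MOPS pH 6.7, MgCl2, DTT, CHAPS; 2% DMSO). EDTA quench with WGA beads, scintillation count, and IC50 fit of percent-of-control activity.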

[3] = target: PI3Kδ (p110δ/p85α) Recombinant Human Protein (Homo sapiens (Human), UniProt O00329); test: PI3Kδ Scintillation Proximity Assay; assay type: biochemical; conditions: read-out: PI3K-delta SPA IC50
Sequence of PI3Kδ (p110δ/p85α) Recombinant Human Protein (O00329 whole entry): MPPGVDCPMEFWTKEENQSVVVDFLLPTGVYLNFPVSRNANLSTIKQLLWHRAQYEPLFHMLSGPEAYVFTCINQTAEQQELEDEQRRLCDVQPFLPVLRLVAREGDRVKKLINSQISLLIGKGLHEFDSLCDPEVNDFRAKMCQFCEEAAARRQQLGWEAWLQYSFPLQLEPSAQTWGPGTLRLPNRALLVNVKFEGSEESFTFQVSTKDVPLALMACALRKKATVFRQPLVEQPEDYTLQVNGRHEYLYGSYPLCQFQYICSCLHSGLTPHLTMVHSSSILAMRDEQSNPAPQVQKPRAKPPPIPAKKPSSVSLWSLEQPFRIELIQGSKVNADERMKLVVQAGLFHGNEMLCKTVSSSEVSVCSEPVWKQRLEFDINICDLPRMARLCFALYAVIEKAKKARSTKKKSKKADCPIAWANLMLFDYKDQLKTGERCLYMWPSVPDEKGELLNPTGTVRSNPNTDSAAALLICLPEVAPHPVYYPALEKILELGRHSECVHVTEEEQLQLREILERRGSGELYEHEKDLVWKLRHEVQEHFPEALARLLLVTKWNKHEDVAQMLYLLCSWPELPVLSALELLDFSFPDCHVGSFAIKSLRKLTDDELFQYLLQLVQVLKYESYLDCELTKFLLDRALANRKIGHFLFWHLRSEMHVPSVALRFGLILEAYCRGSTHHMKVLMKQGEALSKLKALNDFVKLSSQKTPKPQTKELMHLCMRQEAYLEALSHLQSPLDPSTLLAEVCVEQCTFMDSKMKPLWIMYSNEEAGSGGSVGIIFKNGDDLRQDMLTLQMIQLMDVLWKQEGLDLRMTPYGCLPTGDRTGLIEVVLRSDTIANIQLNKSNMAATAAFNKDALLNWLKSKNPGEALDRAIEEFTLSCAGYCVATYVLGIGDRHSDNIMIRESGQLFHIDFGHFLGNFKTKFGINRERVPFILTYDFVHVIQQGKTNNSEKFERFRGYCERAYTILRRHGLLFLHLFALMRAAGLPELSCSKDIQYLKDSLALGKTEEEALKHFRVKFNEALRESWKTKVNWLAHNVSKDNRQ
Sequence of PI3Kδ (p110δ/p85α) Recombinant Human Protein (P27986 whole entry partner): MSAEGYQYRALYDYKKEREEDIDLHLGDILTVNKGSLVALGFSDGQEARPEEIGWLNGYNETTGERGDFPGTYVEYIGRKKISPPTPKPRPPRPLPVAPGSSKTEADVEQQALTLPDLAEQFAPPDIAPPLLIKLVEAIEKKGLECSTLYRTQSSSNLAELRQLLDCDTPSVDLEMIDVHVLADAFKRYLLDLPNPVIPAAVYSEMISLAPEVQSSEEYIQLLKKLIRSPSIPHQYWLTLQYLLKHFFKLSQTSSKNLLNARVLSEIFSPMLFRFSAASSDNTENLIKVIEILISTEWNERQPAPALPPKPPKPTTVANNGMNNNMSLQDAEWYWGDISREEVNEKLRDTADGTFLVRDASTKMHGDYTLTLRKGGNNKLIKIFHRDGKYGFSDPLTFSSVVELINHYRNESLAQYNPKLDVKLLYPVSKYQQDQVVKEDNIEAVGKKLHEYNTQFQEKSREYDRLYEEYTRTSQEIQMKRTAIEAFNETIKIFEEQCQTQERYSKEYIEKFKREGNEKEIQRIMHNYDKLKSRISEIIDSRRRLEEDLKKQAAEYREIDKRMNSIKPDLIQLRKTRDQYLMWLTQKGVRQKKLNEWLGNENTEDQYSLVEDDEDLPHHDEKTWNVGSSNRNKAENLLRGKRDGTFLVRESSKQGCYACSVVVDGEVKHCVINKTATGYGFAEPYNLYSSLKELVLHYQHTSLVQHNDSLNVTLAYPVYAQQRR
Outline: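 Assay conditions: 2 μM ATP (radiolabelled), 20 μM PIP2, 3.4 nM PI3Kδ, 20 mM MOPS pH 6.7 with 10 mM MgCl2, 5 mM DTT, 0.03% CHAPS, 2 h at room temperature. Signal from bead-captured 33P product; IC50 versus solvent control.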

pIC50 [1] | pIC50 [2] | pIC50 [3] | Compound
≥ 6.52 | ≥ 7.30 | ≥ 7.30 | Cc1nc(-c2cc(-c3cncc(C(=O)N4CCC(C(F)(F)F)C4)c3)ccn2)[nH]c1C (racemic) [Example 178, 2′-(4,5-Dimethyl-1H-imidazol-2-yl)-5-{[3-(trifluoromethyl)pyrrolidin-1-yl]carbonyl}-3,4′-bipyridine trifluoroacetate salt]
5.30 to 6.00 | ≥ 7.30 | ≥ 7.30 | Cc1nc(-c2cc(-c3cncc(C(=O)N4CCC(C)(O)C4)c3)ccn2)[nH]c1C (racemic) [Example 180, 1-{[2′-(4,5-Dimethyl-1H-imidazol-2-yl)-3,4′-bipyridin-5-yl]carbonyl}-3-methylpyrrolidin-3-ol trifluoroacetate salt]
6.00 to 6.52 | ≥ 7.30 | ≥ 7.30 | Cc1nc(-c2cc(-c3cncc(C(=O)N4CCC(C#N)C4)c3)ccn2)[nH]c1C (racemic) [Example 183, 1-{[2′-(4,5-Dimethyl-1H-imidazol-2-yl)-3,4′-bipyridin-5-yl]carbonyl}pyrrolidine-3-carbonitrile trifluoroacetate salt]
6.00 to 6.52 | ≥ 7.30 | ≥ 7.30 | Cc1nc(-c2cc(-c3cncc(C(=O)N4CCC4C(F)(F)F)c3)ccn2)[nH]c1C (racemic) [Example 184, 2′-(4,5-Dimethyl-1H-imidazol-2-yl)-5-{[2-(trifluoromethyl)azetidin-1-yl]carbonyl}-3,4′-bipyridine trifluoroacetate salt]
6.00 to 6.52 | ≥ 7.30 | ≥ 7.00 | Cc1nc(-c2cc(-c3cncc(C(=O)N4CCCCC4C)c3)ccn2)[nH]c1C (racemic) [Example 190, 2′-(4,5-Dimethyl-1H-imidazol-2-yl)-5-[(2-methylpiperidin-1-yl)carbonyl]-3,4′-bipyridine trifluoroacetate salt]
5.30 to 6.00 | ≥ 7.00 | ≥ 6.30 | Cc1nc(-c2cc(-c3cncc(C4CCN(S(C)(=O)=O)C4)c3)ccn2)[nH]c1C (racemic) [Example 240, 2′-(4,5-Dimethyl-1H-imidazol-2-yl)-5-[1-(methylsulfonyl)pyrrolidin-3-yl]-3,4′-bipyridine]
≥ 6.52 | ≥ 7.30 | ≥ 7.30 | Cc1[nH]c(-c2cc(-c3cncc(N4CCOCC4)c3)ccn2)nc1C(=O)NC(C)c1cccc(F)c1 (racemic) [Example 277, N-[1-(3-Fluorophenyl)ethyl]-5-methyl-2-(5-morpholin-4-yl-3,4′-bipyridin-2′-yl)-1H-imidazole-4-carboxamide trifluoroacetate salt]
– | ≥ 6.30 | ≥ 7.30 | COc1ccccc1Nc1nc(-c2cc(-c3cncc(N4CCOCC4)c3)ccn2)[nH]c1C [Example 307, N-(2-Methoxyphenyl)-5-methyl-2-(5-morpholin-4-yl-3,4′-bipyridin-2′-yl)-1H-imidazol-4-amine Trifluoroacetate Salt]
– | ≥ 6.30 | ≥ 7.30 | Cc1[nH]c(-c2cc(-c3cncc(N4CCOCC4)c3)ccn2)nc1Nc1ccnnc1 [Example 308, N-[5-Methyl-2-(5-morpholin-4-yl-3,4′-bipyridin-2′-yl)-1H-imidazol-4-yl]pyridazin-4-amine trifluoroacetate salt]

More lines, now with the values behind:

Compound | pIC50 [1] | pIC50 [2] | pIC50 [3]
Cc1nc(-c2cc(-c3cncc(NCC4CCOC4)c3)ccn2)[nH]c1C (racemic) [Example 145B, 2′-(4,5-Dimethyl-1H-imidazol-2-yl)-N-(tetrahydrofuran-3-ylmethyl)-3,4′-bipyridin-5-amine] | ≥ 6.52 | ≥ 7.30 | ≥ 7.30
Cc1nc(-c2cc(-c3cncc(NC(C)c4ccccc4)c3)ccn2)[nH]c1C (racemic) [Example 145C, 2′-(4,5-Dimethyl-1H-imidazol-2-yl)-N-(1-phenylethyl)-3,4′-bipyridin-5-amine trifluoroacetate salt] | ≥ 6.52 | ≥ 7.30 | ≥ 7.30
Cc1nc(-c2cc(-c3cncc(C(=O)N4CCCC(O)C4)c3)ccn2)[nH]c1C (racemic) [Example 154, (2′-(4,5-Dimethyl-1H-imidazol-2-yl)-3,4′-bipyridin-5-yl)(3-hydroxypiperidin-1-yl)methanone] | 6.00 to 6.52 | ≥ 7.30 | ≥ 7.00
Cc1nc(-c2cc(-c3cncc(C(=O)N4CCC(CCO)C4)c3)ccn2)[nH]c1C (racemic) [Example 169, (2′-(4,5-Dimethyl-1H-imidazol-2-yl)-3,4′-bipyridin-5-yl)(3-(2-hydroxyethyl)pyrrolidin-1-yl)methanone] | 5.30 to 6.00 | ≥ 7.00 | ≥ 7.30
COC1CCN(C(=O)c2cncc(-c3ccnc(-c4nc(C)c(C)[nH]4)c3)c2)C1 (racemic) [Example 174, 2′-(4,5-Dimethyl-1H-imidazol-2-yl)-5-[(3-methoxypyrrolidin-1-yl)carbonyl]-3,4′-bipyridine trifluoroacetate salt] | ≥ 6.52 | ≥ 7.30 | ≥ 7.30
COC(=O)C1CCN(C(=O)c2cncc(-c3ccnc(-c4nc(C)c(C)[nH]4)c3)c2)C1 (racemic) [Example 175, Methyl 1-{[2′-(4,5-dimethyl-1H-imidazol-2-yl)-3,4′-bipyridin-5-yl]carbonyl}pyrrolidine-3-carboxylate trifluoroacetate salt] | ≥ 6.52 | ≥ 7.30 | ≥ 7.30
CS(=O)(=O)N1CCC(c2c[nH]c(-c3cc(-c4cnn(Cc5ccc(Cl)cc5)c4)ccn3)n2)C1 (single isomer, unassigned) [Example 300, 4-[1-(4-Chlorobenzyl)-1H-pyrazol-4-yl]-2-{4-[1-(methylsulfonyl)pyrrolidin-3-yl]-1H-imidazol-2-yl}pyridine Trifluoroacetate Salt] | 6.00 to 6.52 | ≥ 7.30 | ≥ 6.30
Clc1ccc(Cn2cc(-c3ccnc(-c4ncc(-c5ccccc5)[nH]4)c3)cn2)cc1 [Example 1, 4-[1-(4-Chlorobenzyl)-1H-pyrazol-4-yl]-2-(5-phenyl-1H-imidazol-2-yl)pyridine Trifluoroacetate Salt] | < 5.30 | ≥ 7.30 | < 6.30
c1ccc(Cn2cc(-c3ccnc(-c4ncc(-c5ccccc5)[nH]4)c3)cn2)cc1 [Example 5, 4-(1-Benzyl-1H-pyrazol-4-yl)-2-(5-phenyl-1H-imidazol-2-yl)pyridine trifluoroacetate salt] | 5.30 to 6.00 | ≥ 7.00 | ≥ 7.30
N#Cc1ccccc1Cn1cc(-c2ccnc(-c3ncc(-c4ccccc4)[nH]3)c2)cn1 [Example 6, 2-((4-(2-(5-Phenyl-1H-imidazol-2-yl)pyridin-4-yl)-1H-pyrazol-1-yl)methyl)benzonitrile trifluoroacetate salt] | < 5.30 | ≥ 7.00 | ≥ 6.30
Clc1ccccc1Cn1cc(-c2ccnc(-c3ncc(-c4ccccc4)[nH]3)c2)cn1 [Example 7, 4-(1-(2-Chlorobenzyl)-1H-pyrazol-4-yl)-2-(5-phenyl-1H-imidazol-2-yl)pyridine trifluoroacetate salt] | < 5.30 | ≥ 7.00 | ≥ 6.30
O=S(=O)(c1ccccc1)N1CCC(c2c[nH]c(-c3cc(-c4cnn(Cc5ccc(Cl)cc5)c4)ccn3)n2)C1 (stereo not shown) [Example 302, 4-[1-(4-Chlorobenzyl)-1H-pyrazol-4-yl]-2-{4-[1-(phenylsulfonyl)pyrrolichn-3-yl]-1H-imidazol-2-yl}pyridine trifluoroacetate salt] | – | ≥ 6.30 | ≥ 6.30
CC(=O)N1CCC(c2c[nH]c(-c3cc(-c4cnn(Cc5ccc(Cl)cc5)c4)ccn3)n2)C1 (stereo not drawn) [Example 303, 2-[4-(1-Acetylpyrrolidin-3-yl)-1H-imidazol-2-yl]-4-[l-(4-chlorobenzyl)-1H-pyrazol-4-yl]pyridine trifluoroacetate salt] | – | ≥ 6.30 | < 6.30
O=S(=O)(c1ccccc1)N1CCC(c2c[nH]c(-c3cc(-c4cnn(Cc5ccc(Cl)cc5)c4)ccn3)n2)C1 (stereo not shown) [Example 305, 4-[1-(4-Chlorobenzyl)-1H-pyrazol-4-yl]-2-{4-[1-(phenylsulfonyl)pyrrolidin-3-yl]-1H-imidazol-2-yl}pyridine trifluoroacetate salt] | – | ≥ 6.30 | ≥ 6.30
